The text below walks through data of patent US20240343704A1, “HALO-SUBSTITUTED AMINO PYRIDINE COMPOUNDS AS INHIBITORS OF THE HAEMATOPOIETIC PROGENITOR KINASE 1 (HPK1)” (priority 2021, published 2024).

Molecules are shown by their SMILES.

What is called IC50 is the point on the concentration scale where inhibition reaches its midpoint.

The target in experiment [1] is T1, Recombinant (1-346) HPK1 (h) (Homo sapiens, UniProt Q92918).
T1 construct: Recombinant (1-346) HPK1 (h) is incubated with 8 mM MOPS pH 7.0
T1 sequence (Q92918 1-346): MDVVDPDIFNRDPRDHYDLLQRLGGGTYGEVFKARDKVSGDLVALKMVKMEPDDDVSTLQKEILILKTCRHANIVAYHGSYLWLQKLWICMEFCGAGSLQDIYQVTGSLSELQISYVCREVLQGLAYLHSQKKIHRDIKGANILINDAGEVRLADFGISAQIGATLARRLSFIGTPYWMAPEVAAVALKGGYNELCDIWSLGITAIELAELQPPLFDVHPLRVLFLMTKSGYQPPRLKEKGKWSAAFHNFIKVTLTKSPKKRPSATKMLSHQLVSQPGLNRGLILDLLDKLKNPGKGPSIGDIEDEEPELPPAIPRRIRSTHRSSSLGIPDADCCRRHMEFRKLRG
The experiment can be described thus: HPK1 Human STE Kinase Enzymatic Radiometric Assay. The experiment is classed as biochemical. As to conditions: read-out: HPK1 IC50 nM Range*. As for the experimental part:
A stock solution of 10 mM of test compound is prepared in DMSO. The compound plate was prepared by 3-fold and 9-point serial dilutions. […] The reaction is initiated by The addition of the Mg/ATP mix. After incubation for 40 minutes at RT, the reaction is stopped by the addition of phosphoric acid to a concentration of 0.5%.

The next experiment concerns the target Lck (h) (Homo sapiens, UniProt P06239). The experiment can be described thus: Lck Human  Kinase Enzymatic Radiometric Assay. The note with it: read-out: Lck IC50 nM Range*. Format: biochemical. The method in brief:
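Substrate 33P-incorporation measured by scintillation counting after spotting on P30 filtermat and phosphoric acid washes. Human Lck reacted 40 min at RT in 50 mM Tris pH 7.5 with 10 mM MgAcetate, [gamma-33P]-ATP, 250 uM Cdc2 peptide, 0.1 mM EGTA and 0.1 mM Na3VO4.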

Sequence of Lck (h) (P06239 whole entry): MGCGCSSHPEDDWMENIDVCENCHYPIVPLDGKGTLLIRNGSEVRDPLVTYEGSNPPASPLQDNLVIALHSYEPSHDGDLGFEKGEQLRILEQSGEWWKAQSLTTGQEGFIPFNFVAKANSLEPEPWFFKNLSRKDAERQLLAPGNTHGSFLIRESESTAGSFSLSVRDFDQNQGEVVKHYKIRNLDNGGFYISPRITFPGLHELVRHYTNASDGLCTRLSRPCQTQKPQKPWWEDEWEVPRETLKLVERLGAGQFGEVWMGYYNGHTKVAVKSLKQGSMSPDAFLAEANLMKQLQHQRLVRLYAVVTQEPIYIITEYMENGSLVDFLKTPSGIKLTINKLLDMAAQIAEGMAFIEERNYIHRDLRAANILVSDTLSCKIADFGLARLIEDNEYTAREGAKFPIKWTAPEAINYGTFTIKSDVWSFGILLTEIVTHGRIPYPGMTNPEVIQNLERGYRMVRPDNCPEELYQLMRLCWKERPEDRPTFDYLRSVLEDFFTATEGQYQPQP

`CC(C)N1CCc2cc(-c3cc(-c4ccc5c(c4)CCNC5=O)c(N)nc3F)ccc2C1` [I-328, 6-(2-amino-6-fluoro-5-(2-isopropyl-1,2,3,4-tetrahydroisoquinolin-6-yl)pyridin-3-yl)-3,4-dihydroisoquinolin-1(2H)-one]: the IC50 is 11 to 100 nM in experiment [1] and more than 1000 nM on Lck (h).

As for `COCCN1CCN(Cc2cccc(-c3cc(-c4ccc5c(c4)CCNC5=O)c(N)nc3F)c2)CC1` [I-329, 6-(2-amino-6-fluoro-5-(3-((4-(2-methoxyethyl)piperazin-1-yl)methyl)phenyl)pyridin-3-yl)-3,4-dihydroisoquinolin-1(2H)-one], the IC50 in experiment [1] was 101 to 1000 nM; at Lck (h), more than 1000 nM.

Turning to `CC(C)N1CCN(Cc2cccc(-c3cc(-c4ccc5c(c4)CCNC5=O)c(N)nc3F)c2)CC1` [I-330, 6-(2-amino-6-fluoro-5-(3-((4-isopropylpiperazin-1-yl)methyl)phenyl)pyridin-3-yl)-3,4-dihydroisoquinolin-1(2H)-one], the figures for the IC50 (in experiment [1]; at Lck (h)) were 11 to 100 nM and more than 1000 nM, respectively.

Take `CN1CCN(C(=O)c2cccc(-c3cc(-c4ccc5c(c4)CCNC5=O)c(N)nc3F)c2)CC1` [I-331, 6-(2-amino-6-fluoro-5-(3-(4-methylpiperazine-1-carbonyl)phenyl)pyridin-3-yl)-3,4-dihydroisoquinolin-1(2H)-one]: the values for the IC50 (in experiment [1]; on Lck (h)) were 101 to 1000 nM and more than 1000 nM, respectively.

As for `CN1CCN(c2ccc(-c3cc(-c4ccc5c(c4)CCNC5=O)c(N)nc3F)cc2N)CC1` [I-332, 6-(2-amino-5-(3-amino-4-(4-methylpiperazin-1-yl)phenyl)-6-fluoropyridin-3-yl)-3,4-dihydroisoquinolin-1(2H)-one], the IC50 in experiment [1] is 0.1 to 10 nM; at Lck (h), more than 1000 nM.

Consider `Nc1nc(F)c(-c2ccc3c(c2)CCNC3=O)cc1-c1ccc2c(c1)CCNC2=O` [I-333, 6,6′-(2-amino-6-fluoropyridine-3,5-diyl)bis(3,4-dihydroisoquinolin-1(2H)-one)], for which the half-inhibitory concentration (IC50) is 0.1 to 10 nM in experiment [1] and more than 1000 nM at Lck (h).

Take `Nc1nc(F)c(-c2ccc3c(c2)CNCC3)cc1-c1ccc2c(c1)CCNC2=O` [I-334, 6-(2-amino-6-fluoro-5-(1,2,3,4-tetrahydroisoquinolin-7-yl)pyridin-3-yl)-3,4-dihydroisoquinolin-1(2H)-one 2,2,2-trifluoroacetate]: the IC50 was 11 to 100 nM in experiment [1] and more than 1000 nM at Lck (h).

Regarding `CC(C)N1CCc2ccc(-c3cc(-c4ccc5c(c4)CCNC5=O)c(N)nc3F)cc2C1` [I-335, 6-(2-amino-6-fluoro-5-(2-isopropyl-1,2,3,4-tetrahydroisoquinolin-7-yl)pyridin-3-yl)-3,4-dihydroisoquinolin-1(2H)-one], the results for the IC50 (in experiment [1]; at Lck (h)) were 11 to 100 nM and more than 1000 nM, respectively.

Regarding `CC(C)N1CCN(c2ccc(-c3cc(-c4cc(F)c5c(c4)CCNC5=O)c(N)nc3F)cc2)CC1` [I-336, 6-(2-amino-6-fluoro-5-(4-(4-isopropylpiperazin-1-yl)phenyl)pyridin-3-yl)-8-fluoro-3,4-dihydroisoquinolin-1(2H)-one], the IC50 was in the range of 0.1 to 10 nM in experiment [1] and 101 to 1000 nM at Lck (h).

Take `Nc1nc(F)c(-c2ccc(OC3CCN(C(=O)CC4CC4)CC3)cc2)cc1-c1ccc2c(c1)CCNC2=O` [I-337, 6-(2-amino-5-(4-((1-(2-cyclopropylacetyl)piperidin-4-yl)oxy)phenyl)-6-fluoropyridin-3-yl)-3,4-dihydroisoquinolin-1(2H)-one]: the IC50 in experiment [1] is 11 to 100 nM; at Lck (h), more than 1000 nM.

Regarding `Nc1nc(F)c(-c2ccc(OC3CCN(C4COC4)CC3)cc2)cc1-c1ccc2c(c1)CCNC2=O` [I-338, 6-(2-amino-6-fluoro-5-(4-((1-(oxetan-3-yl)piperidin-4-yl)oxy)phenyl)pyridin-3-yl)-3,4-dihydroisoquinolin-1(2H)-one], the IC50 in experiment [1] is 11 to 100 nM; on Lck (h), more than 1000 nM.

Turning to `Nc1nc(F)c(-c2ccc(OC3CNC3)cc2)cc1-c1cc2c(cc1F)C(=O)NCC2` [I-339, 6-(2-amino-5-(4-(azetidin-3-yloxy)phenyl)-6-fluoropyridin-3-yl)-7-fluoro-3,4-dihydroisoquinolin-1(2H)-one 2,2,2-trifluoroacetate], the figures for the IC50 (in experiment [1]; on Lck (h)) were 11 to 100 nM and more than 1000 nM, respectively.

Regarding `Nc1nc(F)c(-c2ccc(C3(F)CNC3)cc2)cc1-c1ccc2c(c1)CCNC2=O` [I-340, 6-(2-amino-6-fluoro-5-(4-(3-fluoroazetidin-3-yl)phenyl)pyridin-3-yl)-3,4-dihydroisoquinolin-1(2H)-one 2,2,2-trifluoroacetate], the values for the IC50 (in experiment [1]; at Lck (h)) were 0.1 to 10 nM and more than 1000 nM, respectively.

For the molecule `CC(=O)N1CC(Oc2ccc(-c3cc(-c4cc5c(cc4F)C(=O)NCC5)c(N)nc3F)cc2)C1` [I-341, 6-(5-(4-((1-acetylazetidin-3-yl)oxy)phenyl)-2-amino-6-fluoropyridin-3-yl)-7-fluoro-3,4-dihydroisoquinolin-1(2H)-one], the IC50 in experiment [1] was 11 to 100 nM; at Lck (h), more than 1000 nM.

Turning to `CC(=O)N1CC(F)(c2ccc(-c3cc(-c4ccc5c(c4)CCNC5=O)c(N)nc3F)cc2)C1` [I-342, 6-(5-(4-(1-acetyl-3-fluoroazetidin-3-yl)phenyl)-2-amino-6-fluoropyridin-3-yl)-3,4-dihydroisoquinolin-1(2H)-one], the results for the IC50 (in experiment [1]; at Lck (h)) were 0.1 to 10 nM and more than 1000 nM, respectively.

As for `CN1C[C@H]2C[C@@]2(c2ccc(-c3cc(-c4cc5c(cc4F)C(=O)NCC5)c(N)nc3F)cc2)C1` [I-343, 6-(2-amino-6-fluoro-5-(4-((1R,5S)-3-methyl-3-azabicyclo[3.1.0]hexan-1-yl)phenyl)pyridin-3-yl)-7-fluoro-3,4-dihydroisoquinolin-1(2H)-one], the IC50 is 0.1 to 10 nM in experiment [1] and more than 1000 nM on Lck (h).

With `CN1C[C@@H]2C[C@]2(c2ccc(-c3cc(-c4cc5c(cc4F)C(=O)NCC5)c(N)nc3F)cc2)C1` [I-344, 6-(2-amino-6-fluoro-5-(4-((1S,5R)-3-methyl-3-azabicyclo[3.1.0]hexan-1-yl)phenyl)pyridin-3-yl)-7-fluoro-3,4-dihydroisoquinolin-1(2H)-one], the IC50 in experiment [1] was 0.1 to 10 nM; at Lck (h), more than 1000 nM.

For `CC(C)N1CCN(c2ccc(-c3cc(-c4ccc5c(c4)CCNC5=O)c(N)nc3F)c(F)c2F)CC1` [I-345, 6-(2-amino-5-(2,3-difluoro-4-(4-isopropylpiperazin-1-yl)phenyl)-6-fluoropyridin-3-yl)-3,4-dihydroisoquinolin-1(2H)-one], the IC50 in experiment [1] was 0.1 to 10 nM; at Lck (h), more than 1000 nM.

On to `Nc1nc(F)c(-c2ccc(N3CCS(=O)(=O)CC3)cc2)cc1-c1cc2c(cc1F)C(=O)NCC2` [I-346, 6-(2-amino-5-(4-(1,1-dioxidothiomorpholino)phenyl)-6-fluoropyridin-3-yl)-7-fluoro-3,4-dihydroisoquinolin-1(2H)-one], for which the IC50 in experiment [1] is 0.1 to 10 nM; on Lck (h) it was more than 1000 nM.

In the case of `Nc1nc(F)c(-c2ccc(N3CCSCC3)cc2)cc1-c1cc2c(cc1F)C(=O)NCC2` [I-347, 6-(2-amino-6-fluoro-5-(4-thiomorpholinophenyl)pyridin-3-yl)-7-fluoro-3,4-dihydroisoquinolin-1(2H)-one], the IC50 is 0.1 to 10 nM in experiment [1] and more than 1000 nM at Lck (h).

Consider `Nc1nc(F)c(-c2ccc(OC3CCN(C(=O)CCCC[C@@H]4SC[C@@H]5NC(=O)N[C@@H]54)CC3)cc2)cc1-c1ccc2c(c1)CCNC2=O` [I-348, (3aS,4S,6aR)-4-(5-(4-(4-(6-amino-2-fluoro-5-(1-oxo-1,2,3,4-tetrahydroisoquinolin-6-yl)pyridin-3-yl)phenoxy)piperidin-1-yl)-5-oxopentyl)tetrahydro-1H-thieno[3,4-d]imidazol-2(3H)-one], for which the figures for the IC50 (in experiment [1]; at Lck (h)) were 0.1 to 10 nM and more than 1000 nM, respectively.

As to `CC(C)N1CCN(c2ccc(-c3cc(-c4cc5c(cc4Cl)C(=O)NCC5)c(N)nc3F)cc2)CC1` [I-349, 6-(2-amino-6-fluoro-5-(4-(4-isopropylpiperazin-1-yl)phenyl)pyridin-3-yl)-7-chloro-3,4-dihydroisoquinolin-1(2H)-one], the results for the IC50 (in experiment [1]; at Lck (h)) were 0.1 to 10 nM and more than 1000 nM, respectively.

Take `COCCN1CCC(c2ccc(-c3cc(-c4cc(F)c5c(c4)CCNC5=O)c(N)nc3F)cc2)CC1` [I-350, 6-(2-amino-6-fluoro-5-(4-(1-(2-methoxyethyl)piperidin-4-yl)phenyl)pyridin-3-yl)-8-fluoro-3,4-dihydroisoquinolin-1(2H)-one]: the IC50 in experiment [1] lay within 0.1 to 10 nM; on Lck (h), 101 to 1000 nM.

`CC(C)[C@@H]1CN(c2ccc(-c3cc(-c4cc(F)c5c(c4)CCNC5=O)c(N)nc3F)cc2)CCO1` [I-351, (R)-6-(2-amino-6-fluoro-5-(4-(2-isopropylmorpholino)phenyl)pyridin-3-yl)-8-fluoro-3,4-dihydroisoquinolin-1(2H)-one]: the results for the IC50 (in experiment [1]; on Lck (h)) were 0.1 to 10 nM and more than 1000 nM, respectively.

Turning to `CN1C[C@H]2C[C@@]2(c2ccc(-c3cc(-c4cc(F)c5c(c4)CCNC5=O)c(N)nc3F)cc2)C1` [I-352, 6-(2-amino-6-fluoro-5-(4-((1R,5S)-3-methyl-3-azabicyclo[3.1.0]hexan-1-yl)phenyl)pyridin-3-yl)-8-fluoro-3,4-dihydroisoquinolin-1(2H)-one], the IC50 in experiment [1] was 0.1 to 10 nM; at Lck (h), more than 1000 nM.
